From US20170196927A1, “COMPOSITION FOR ARTHRITIS, MOBILITY AND DELAY AGEING” (Mars, Incorporated, priority 2014, published 2017)
Like-named read-outs stand apart in the source and are kept apart here.

Tests used:
[1] = system: Rabbit Articular Chondrocytes (RAC); experiment: Cellular viability of RAC (MTS assay and trypan blue exclusion); type: cell-based
Experimental: (§1) An in vitro study was run to evaluate the efficacy of a composition containing chondroitin, hydrolysed collagen and green tea extract on Rabbit Articular Chondrocytes (RAC). RAC were cultured in DMEM supplemented with 10% Fetal Calf Serum, glutamine and 1% penicillin/streptomycin (Gibco, Life Technologies AG, Switzerland) at 37° C. in an incubator with an atmosphere of 5% CO2.
Cellular viability was measured using an MTS assay (Cell Titer 96™ MTS, Promega, France) as per manufacturer's instructions. Cells were also counted using a Malassez cell and cellular viability was assessed using trypan blue exclusion dye technique, which colours dead cells in blue.
Rabbit Articular Chondrocytes (RAC) were incubated with the different compounds separately or blended together to evaluate their cytotoxicity.

[2] = system: inducible isoform Nitric oxide Synthase (iNoS); experiment: RNA expression of iNoS (RT-PCR) in IL-1β stimulated RAC; type: cell-based, Rabbit; conditions: for Effect on iNos expression (in words): IL-1β stimulated RAC; for iNoS Expression: relative RNA expression (untreated = 1.0), GAPDH reference, 24 h pre-treatment, IL-1β 10 ng/ml 48 h, green tea extract 50 μM, collagen 0.5 mg/ml, chondroitin 200 μg/ml
Experimental: as §1
(§2) RAC were plated in 6 well plates (3×10^5 cells/cm2). The medium was replaced with fresh medium containing each compound chondroitin, hydrolysed collagen and green tea extract or a mixture of all three compounds for 24 hours prior to stimulation with IL-1β (10 ng/ml) (Merck Millipore, USA). RAC were then incubated for 48, hours after which RNA expression of cyclooxgenase-2 (COX-2), inducible isoform Nitric oxide Synthase (iNoS) and Matrix Metallopeptidase-13 (MMP13) was measured as markers of arthritis.
(§3) NO and PGE2 production was measured using Cayman Chemicals (Bertin Pharma, France) following the manufacturer's protocol. NO production was estimated spectrophotometrically by measuring the accumulation of nitrites in the culture supernatants by Griess reaction using a standard curve prepared with sodium nitrite. PGE2 was estimated using a highly sensitive and specific Enzyme Immunoassay Kit. RNA extraction was performed by extracting RNA using the NucleoSpin™ RNA II Kit (Macherey-Nagel, Hoerdt, France) as per manufacturer's instructions. RNA was reverse-transcribed with SupersScript III (Life Technologies) and real-time polymerase chain reaction (RT-PCR) was performed with SYBR Select mix (Life Technologies). Primer sequences COX-2, iNoS and MMP13 was used to quantify the relative RNA expression. Primer sequence for GAPDH was used as the reference gene.

[3] = system: Matrix Metallopeptidase-13 (MMP13); experiment: RNA expression of MMP13 (RT-PCR) in IL-1β stimulated RAC; type: cell-based, Rabbit
Experimental: as §1, §2
NO and PGE2 production was measured using Cayman Chemicals (Bertin Pharma, France) following the manufacturer's protocol. NO production was estimated spectrophotometrically by measuring the accumulation of nitrites in the culture supernatants by Griess reaction using a standard curve prepared with sodium nitrite. PGE2 was estimated using a highly sensitive and specific Enzyme Immunoassay Kit. […] Primer sequences COX-2, iNoS and MMP13 was used to quantify the relative RNA expression. […]

[4] = system: cyclooxgenase-2 (COX-2); experiment: RNA expression of COX-2 (RT-PCR) in IL-1β stimulated RAC; type: cell-based, Rabbit; conditions: for Effect on COX2 expression (in words): IL-1β stimulated RAC; for COX2 Expression: relative RNA expression (untreated = 1.0), GAPDH reference, 24 h pre-treatment, IL-1β 10 ng/ml 48 h, green tea extract 50 μM, collagen 0.5 mg/ml, chondroitin 200 μg/ml
Experimental: as §1, §2, §3

Chondroitin
Cellular toxicity (MTS measurements and Trypan blue exclusion) ([1]; 24 and 48 hours of incubation, large range of concentration (data not shown)): did not reveal any cellular toxicity | Effect on iNos expression (in words) [2]: seems to have no effect | iNoS Expression [2]: 5.3 | Effect on MMP13 expression (in words) [3]: seems to have no effect | Effect on COX2 expression (in words) [4]: seems to have no effect | COX2 Expression [4]: 10.7

Collagen
Cellular toxicity (MTS measurements and Trypan blue exclusion) [1]: did not reveal any cellular toxicity | Effect on iNos expression (in words) [2]: decreases the expression | iNoS Expression [2]: 3.9 | Effect on MMP13 expression (in words) [3]: decreases the expression | Effect on COX2 expression (in words) [4]: decreases the expression | COX2 Expression [4]: 7.1
